The source made the active and inactive calls. The rule behind the calls is not given here.

For 6 compounds, inhibition results are on record in ChEMBL document CHEMBL5360593, “Rare Caulamidine Hexacyclic Alkaloids from the Marine Ascidian Polyandrocarpa sp” (J Nat Prod, 2023).

Sequence of E3 ubiquitin-protein ligase CBL-B (Homo sapiens) (Q13191 whole entry): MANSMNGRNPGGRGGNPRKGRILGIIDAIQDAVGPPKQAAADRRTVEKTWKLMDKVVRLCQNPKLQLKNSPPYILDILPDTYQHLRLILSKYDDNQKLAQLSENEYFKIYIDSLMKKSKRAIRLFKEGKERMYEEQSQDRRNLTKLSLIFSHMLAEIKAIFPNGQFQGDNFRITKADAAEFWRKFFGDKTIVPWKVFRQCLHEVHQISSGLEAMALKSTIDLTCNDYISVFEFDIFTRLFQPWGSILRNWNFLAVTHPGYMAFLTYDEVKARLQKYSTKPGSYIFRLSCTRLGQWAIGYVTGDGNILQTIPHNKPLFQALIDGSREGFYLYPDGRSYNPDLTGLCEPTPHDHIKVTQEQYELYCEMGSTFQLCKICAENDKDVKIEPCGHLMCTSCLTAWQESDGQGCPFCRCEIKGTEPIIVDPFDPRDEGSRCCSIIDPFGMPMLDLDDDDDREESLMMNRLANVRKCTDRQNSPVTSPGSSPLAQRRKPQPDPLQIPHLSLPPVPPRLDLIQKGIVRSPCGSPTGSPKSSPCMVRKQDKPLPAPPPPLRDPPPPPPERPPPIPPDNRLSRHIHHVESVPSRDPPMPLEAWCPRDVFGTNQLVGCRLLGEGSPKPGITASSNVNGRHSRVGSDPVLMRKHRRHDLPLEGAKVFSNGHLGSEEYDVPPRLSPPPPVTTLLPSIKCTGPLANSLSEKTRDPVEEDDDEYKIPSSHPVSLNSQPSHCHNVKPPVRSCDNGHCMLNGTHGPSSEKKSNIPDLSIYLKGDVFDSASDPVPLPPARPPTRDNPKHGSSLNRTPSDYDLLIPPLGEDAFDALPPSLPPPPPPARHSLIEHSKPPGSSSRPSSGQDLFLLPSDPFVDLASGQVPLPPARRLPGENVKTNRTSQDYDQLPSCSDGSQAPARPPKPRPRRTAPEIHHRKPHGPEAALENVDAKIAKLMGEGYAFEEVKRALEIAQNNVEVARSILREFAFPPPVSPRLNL

The test concerns the target E3 ubiquitin-protein ligase CBL-B (Homo sapiens) (UniProt Q13191). As to the kind of experiment: Inhibition of CBLB (unknown origin) using biotinylated ubiquitin as substrate at 20 uM incubated for 1 hr by microplate analysis.
`CN1C[C@@H](Cl)[C@@]23C(=Nc4ccccc42)N(C)CC[C@@]32Cc3ccc(Br)cc3N=C12`: the inhibition entry was “inactive”. Next, `CN1C[C@@H](Cl)[C@@]23C(=Nc4ccccc42)N(C)C[C@H](Cl)[C@@]32Cc3ccc(Br)cc3N=C12`: “inactive”. For `CN1CC[C@]23Cc4ccc(Br)cc4N(C)C2=NC[C@@H](Cl)[C@]32C1=Nc1cc(Br)ccc12` the value was “inactive”; for `CN1C[C@@H](Cl)[C@@]23C(=Nc4cc(Br)ccc42)N(C)CC[C@@]32Cc3ccc(Br)cc3N=C12`, “inactive”. Regarding `CN1CC[C@]23Cc4ccc(Br)cc4N(C)C2=NC[C@@H](Cl)[C@]32C1=Nc1ccccc12`, the inhibition entry was “inactive”. On to `CN1C[C@H](Cl)[C@]23Cc4ccc(Br)cc4N(C)C2=NC[C@@H](Cl)[C@]32C1=Nc1ccccc12`, for which the inhibition result is “inactive”.
